Consider five molecules from patent US12227495B2, “Herbicidal compounds” (SYNGENTA CROP PROTECTION AG, priority 2018, dated 2025).

Common to all, as to format: in vivo
Holding throughout (settings): evaluated after 13 days

The subject of experiment [1] is Lolium perenne (LOLPE). Nature of the experiment: Post-emergence herbicide test, glasshouse, percentage damage. Summed up: (§1)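 Percentage damage, recorded 13 days after treatment, is given as a five-point score (1=0-20%, 2=21-40%, 3=41-60%, 4=61-80%, 5=81-100%). Plants grown in soil pots under 24/16 °C, 14 h light and 65% humidity received a 500 g/ha spray (unless stated otherwise).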

Experiment [2] deals with Echinochloa crus-galli (ECHCG). The experiment is described as above. Summed up:
as §1

For experiment [3], the system named is Ipomoea hederacea (IPOHE). Described as above. Summed up: as §1
Experiment [4] has as its system Amaranthus retoflexus (AMARE). Described as above. Summed up: as §1
For experiment [5], the system named is Setaria faberi (SETFA). Described as above. The procedure, abridged: as §1
The test system of experiment [6] is Solanum nigrum (SOLNI). The experiment is described as above. Summed up: as §1
Experiment [7] concerns Lolium perenne (LOLPE). Nature of the experiment: Pre-emergence herbicide test, glasshouse, percentage damage. The procedure, abridged:
as §1

Experiment [8] deals with Echinochloa crus-galli (ECHCG). The description is as above. Summed up: as §1
Experiment [9] deals with Ipomoea hederacea (IPOHE). The description is as above. Summed up:
as §1

In experiment [10] the test system is Amaranthus retoflexus (AMARE). Described as above. Summed up:
as §1

Experiment [11] relates to Setaria faberi (SETFA). The description is as above. The procedure, abridged:
as §1

In experiment [12] the test system is Solanum nigrum (SOLNI). The experiment is described as above. The procedure, abridged: as §1

Structures are written as SMILES.

Take `FC(F)c1cc(-c2c(Cl)cccc2Oc2cc(Cl)ccn2)on1` [Compound A92]: in the experiment on Lolium perenne (LOLPE) [1] (1000 g/ha), the “percentage damage caused to the plant, LOLPE” value was 4 (4=61-80%). The “percentage damage caused to the plant, ECHCG” value in [2] (1000 g/ha) is given as 4 (4=61-80%). In addition, the “percentage damage caused to the plant, IPOHE” value in [3] (1000 g/ha) is listed as 4 (4=61-80%). For the same molecule, the “percentage damage caused to the plant, AMARE” value in experiment [4] (1000 g/ha) was 4 (4=61-80%). In addition, in the experiment on Setaria faberi (SETFA) [5] (1000 g/ha), the “percentage damage caused to the plant, SETFA” value is 4 (4=61-80%). Besides, in the experiment on Solanum nigrum (SOLNI) [6] (1000 g/ha), the “percentage damage caused to the plant, SOLNI” value is on record as 4 (4=61-80%). The “Pre-emergence Test LOLPE percentage damage (five point scale)” value in the experiment on Lolium perenne (LOLPE) [7] (rate 1000 g/ha) is recorded as 5 (5=81-100%). Further, the “Pre-emergence Test ECHCG percentage damage (five point scale)” value in experiment [8] (rate 1000 g/ha) was 1 (1=0-20%). In addition, in experiment [9] (rate 1000 g/ha), the “Pre-emergence Test IPOHE percentage damage (five point scale)” value is recorded as 4 (4=61-80%). Also, the “Pre-emergence Test AMARE percentage damage (five point scale)” value in [10] (rate 1000 g/ha) is on record as 4 (4=61-80%). Further, the “Pre-emergence Test SETFA percentage damage (five point scale)” value in the experiment on Setaria faberi (SETFA) [11] (rate 1000 g/ha) is 5 (5=81-100%). In the experiment on Solanum nigrum (SOLNI) [12] (rate 1000 g/ha), the “Pre-emergence Test SOLNI percentage damage (five point scale)” value is given as 2 (2=21-40%).

For `FC(F)c1cc(-c2c(Cl)cccc2Oc2cc(C(F)(F)F)ccn2)on1` [Compound A112], the “percentage damage caused to the plant, LOLPE” value in the experiment with Lolium perenne (LOLPE) [1] (1000 g/ha) is 3 (3=41-60%). Also, the “percentage damage caused to the plant, ECHCG” value in experiment [2] (1000 g/ha) was 3 (3=41-60%). In experiment [3] (1000 g/ha), the “percentage damage caused to the plant, IPOHE” value is on record as 3 (3=41-60%). Further, the “percentage damage caused to the plant, AMARE” value in [4] (1000 g/ha) was 4 (4=61-80%). Also, in the experiment with Setaria faberi (SETFA) [5] (1000 g/ha), the “percentage damage caused to the plant, SETFA” value is on record as 4 (4=61-80%). Further, in the experiment on Solanum nigrum (SOLNI) [6] (1000 g/ha), the “percentage damage caused to the plant, SOLNI” value was 4 (4=61-80%). In addition, in the experiment on Lolium perenne (LOLPE) [7] (rate 1000 g/ha), the “Pre-emergence Test LOLPE percentage damage (five point scale)” value is given as 3 (3=41-60%). In [8] (rate 1000 g/ha), the “Pre-emergence Test ECHCG percentage damage (five point scale)” value was 4 (4=61-80%). Further, the “Pre-emergence Test IPOHE percentage damage (five point scale)” value in [9] (rate 1000 g/ha) is 1 (1=0-20%). In addition, the “Pre-emergence Test AMARE percentage damage (five point scale)” value in [10] (rate 1000 g/ha) is 5 (5=81-100%). Further, the “Pre-emergence Test SETFA percentage damage (five point scale)” value in the experiment on Setaria faberi (SETFA) [11] (rate 1000 g/ha) is on record as 5 (5=81-100%). Further, in the experiment with Solanum nigrum (SOLNI) [12] (rate 1000 g/ha), the “Pre-emergence Test SOLNI percentage damage (five point scale)” value is on record as 2 (2=21-40%).

Consider `FC(F)c1cc(-c2c(Br)cccc2Oc2cc(C(F)(F)F)ccn2)on1` [Compound A99], for which the “percentage damage caused to the plant, LOLPE” value in the experiment on Lolium perenne (LOLPE) [1] (1000 g/ha) is given as 3 (3=41-60%). In addition, the “percentage damage caused to the plant, ECHCG” value in experiment [2] (1000 g/ha) was 4 (4=61-80%). Also, the “percentage damage caused to the plant, IPOHE” value in [3] (1000 g/ha) is reported as 2 (2=21-40%). In addition, the “percentage damage caused to the plant, AMARE” value in [4] (1000 g/ha) is recorded as 5 (5=81-100%). Besides, the “percentage damage caused to the plant, SETFA” value with Setaria faberi (SETFA) [5] (1000 g/ha) is 4 (4=61-80%). Besides, the “percentage damage caused to the plant, SOLNI” value in the experiment with Solanum nigrum (SOLNI) [6] (1000 g/ha) was 4 (4=61-80%). For the same molecule, the “Pre-emergence Test LOLPE percentage damage (five point scale)” value with Lolium perenne (LOLPE) [7] (rate 1000 g/ha) is listed as 3 (3=41-60%). The “Pre-emergence Test ECHCG percentage damage (five point scale)” value in experiment [8] (rate 1000 g/ha) is recorded as 4 (4=61-80%). Besides, the “Pre-emergence Test IPOHE percentage damage (five point scale)” value in experiment [9] (rate 1000 g/ha) is given as 1 (1=0-20%). Besides, the “Pre-emergence Test AMARE percentage damage (five point scale)” value in experiment [10] (rate 1000 g/ha) is 5 (5=81-100%). For the same molecule, the “Pre-emergence Test SETFA percentage damage (five point scale)” value in the experiment on Setaria faberi (SETFA) [11] (rate 1000 g/ha) is listed as 4 (4=61-80%). In addition, in the experiment with Solanum nigrum (SOLNI) [12] (rate 1000 g/ha), the “Pre-emergence Test SOLNI percentage damage (five point scale)” value is recorded as 1 (1=0-20%).

As for `N#Cc1ccnc(Oc2cccc(Cl)c2-c2cc(C(F)F)no2)c1` [Compound A91], the “percentage damage caused to the plant, LOLPE” value in the experiment on Lolium perenne (LOLPE) [1] (1000 g/ha) is 4 (4=61-80%). In addition, the “percentage damage caused to the plant, ECHCG” value in experiment [2] (1000 g/ha) is reported as 4 (4=61-80%). Moreover, the “percentage damage caused to the plant, IPOHE” value in experiment [3] (1000 g/ha) is 4 (4=61-80%). Moreover, in experiment [4] (1000 g/ha), the “percentage damage caused to the plant, AMARE” value is given as 4 (4=61-80%). Besides, the “percentage damage caused to the plant, SETFA” value in the experiment on Setaria faberi (SETFA) [5] (1000 g/ha) is listed as 4 (4=61-80%). In the experiment on Solanum nigrum (SOLNI) [6] (1000 g/ha), the “percentage damage caused to the plant, SOLNI” value was 4 (4=61-80%). Also, the “Pre-emergence Test LOLPE percentage damage (five point scale)” value in the experiment on Lolium perenne (LOLPE) [7] (rate 1000 g/ha) is 4 (4=61-80%). In addition, the “Pre-emergence Test ECHCG percentage damage (five point scale)” value in [8] (rate 1000 g/ha) is given as 5 (5=81-100%). In experiment [9] (rate 1000 g/ha), the “Pre-emergence Test IPOHE percentage damage (five point scale)” value is given as 4 (4=61-80%). Further, in experiment [10] (rate 1000 g/ha), the “Pre-emergence Test AMARE percentage damage (five point scale)” value is reported as 4 (4=61-80%). The “Pre-emergence Test SETFA percentage damage (five point scale)” value in the experiment with Setaria faberi (SETFA) [11] (rate 1000 g/ha) is given as 5 (5=81-100%). Moreover, in the experiment with Solanum nigrum (SOLNI) [12] (rate 1000 g/ha), the “Pre-emergence Test SOLNI percentage damage (five point scale)” value is given as 3 (3=41-60%).

With `Fc1cccc(Oc2cccc(F)c2-c2cc(C(F)F)no2)n1` [Compound A7], in the experiment with Lolium perenne (LOLPE) [1] (500 g/ha), the “percentage damage caused to the plant, LOLPE” value was 2 (2=21-40%). The “percentage damage caused to the plant, ECHCG” value in experiment [2] (500 g/ha) is on record as 4 (4=61-80%). In addition, the “percentage damage caused to the plant, IPOHE” value in experiment [3] (500 g/ha) is 2 (2=21-40%). Moreover, the “percentage damage caused to the plant, AMARE” value in experiment [4] (500 g/ha) is 2 (2=21-40%). Besides, the “percentage damage caused to the plant, SETFA” value in the experiment with Setaria faberi (SETFA) [5] (500 g/ha) is listed as 5 (5=81-100%). Moreover, in the experiment on Solanum nigrum (SOLNI) [6] (500 g/ha), the “percentage damage caused to the plant, SOLNI” value is 5 (5=81-100%). Moreover, the “Pre-emergence Test LOLPE percentage damage (five point scale)” value in the experiment on Lolium perenne (LOLPE) [7] (rate 500 g/ha) was 1 (1=0-20%). Besides, the “Pre-emergence Test ECHCG percentage damage (five point scale)” value in experiment [8] (rate 500 g/ha) is recorded as 4 (4=61-80%). Also, the “Pre-emergence Test IPOHE percentage damage (five point scale)” value in [9] (rate 500 g/ha) was 1 (1=0-20%). The “Pre-emergence Test AMARE percentage damage (five point scale)” value in experiment [10] (rate 500 g/ha) was 5 (5=81-100%). Besides, the “Pre-emergence Test SETFA percentage damage (five point scale)” value in the experiment on Setaria faberi (SETFA) [11] (rate 500 g/ha) is recorded as 4 (4=61-80%). In addition, the “Pre-emergence Test SOLNI percentage damage (five point scale)” value with Solanum nigrum (SOLNI) [12] (rate 500 g/ha) is recorded as 5 (5=81-100%).
